Like-named read-outs stand apart in the source and are kept apart here.
How the values were obtained:
[1] = molecular target: T1, endogenous FL-AR (Homo sapiens, UniProt P10275, T878A); assay: Binding assay of click chemistry probes to full-length AR in LNCaP cells; conditions: 20 μM LPY probes or 25 μM EPI-053, click chemistry, Western blot
T1 construct: endogenous in cells; host or cells: LNCaP
T1 sequence (P10275 1-920 T878A): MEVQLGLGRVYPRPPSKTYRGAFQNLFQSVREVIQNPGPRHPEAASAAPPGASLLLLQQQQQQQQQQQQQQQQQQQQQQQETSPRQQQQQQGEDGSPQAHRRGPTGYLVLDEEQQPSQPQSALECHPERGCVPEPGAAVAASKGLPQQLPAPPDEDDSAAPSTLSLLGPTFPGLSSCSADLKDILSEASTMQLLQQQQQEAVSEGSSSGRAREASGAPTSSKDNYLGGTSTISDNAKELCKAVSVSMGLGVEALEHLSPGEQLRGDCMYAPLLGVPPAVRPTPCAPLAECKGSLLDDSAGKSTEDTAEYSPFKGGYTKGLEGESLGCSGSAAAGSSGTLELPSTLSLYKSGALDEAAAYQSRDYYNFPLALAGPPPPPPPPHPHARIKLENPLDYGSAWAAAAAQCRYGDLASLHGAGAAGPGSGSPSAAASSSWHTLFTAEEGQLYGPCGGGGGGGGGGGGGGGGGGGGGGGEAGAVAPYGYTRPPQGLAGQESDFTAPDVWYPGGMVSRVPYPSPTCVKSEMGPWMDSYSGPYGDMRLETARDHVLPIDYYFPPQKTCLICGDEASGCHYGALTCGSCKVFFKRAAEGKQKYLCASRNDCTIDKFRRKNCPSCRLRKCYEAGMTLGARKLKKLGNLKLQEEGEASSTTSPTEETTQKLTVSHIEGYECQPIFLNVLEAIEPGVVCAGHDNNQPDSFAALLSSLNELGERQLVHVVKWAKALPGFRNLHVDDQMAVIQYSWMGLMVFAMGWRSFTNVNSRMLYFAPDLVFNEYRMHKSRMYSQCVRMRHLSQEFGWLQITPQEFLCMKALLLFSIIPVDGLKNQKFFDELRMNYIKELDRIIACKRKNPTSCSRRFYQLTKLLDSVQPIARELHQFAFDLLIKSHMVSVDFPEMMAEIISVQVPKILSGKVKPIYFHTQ
Protocol: LNCaP cells were treated for 24 h with 20 μM modified SINT1 (LPY19, -30, and -31) or the vehicle dimethyl sulfoxide (DMSO). 25 μM EPI-053 (a modified EPI-001 analog) was used as positive control ([5]). Proteins were extracted with lysis buffer and subjected to click chemistry conditions for 3 h at 25 °C in buffer containing 0.1% SDS, 5% t-butyl alcohol, 100 μM tris[(1-benzyl-1H-1,2,3-triazol-4-yl)methyl]amine (Sigma), 1 mM tris(2-carboxyethyl)phosphine, 100 μM biotin-azide reagent, and 1 mM CuSO4. Samples were dialyzed in 50 mM HEPES, pH 8.0, 150 mM NaCl, 0.1% SDS, and 1% Triton X-100 to remove excess biotin-azide reagent. Biotinylated soluble receptors were captured with streptavidin-agarose resin. Protein-SINT1 complexes were separated by 10% SDS-PAGE and subjected to Western blotting analysis using AR-N20 (1:1000) and biotin (1:1000) antibodies. Proteins were visualized using ECL detection reagent (Amersham Biosciences).
To reveal whether SINT1 binds to endogenous AR, LNCaP cells were incubated with modified SINT1 click chemistry probes (LPY19, LPY30, and LPY31 shown in Fig. 2A). The EPI-002 click chemistry probe EPI-053 was used as a positive control ([5]). […] LNCaP cells were incubated overnight with these probes prior to click chemistry to add biotin to each click chemistry probe (see schema in Fig. 2B, right). Cell lysates were used for immunoprecipitation with streptavidin to isolate those proteins bound to biotinylated probes. Immunocomplexes were split with one aliquot used for Western blotting analysis using an antibody to biotin (Fig. 2B, left) and the other aliquot for Western blotting analysis using an antibody to AR (Fig. 2B, middle). […] Consistent with these biotin bands corresponding to AR, the AR was immunoprecipitated with streptavidin only in those immunocomplexes that were both positive for biotin (Fig. 2B) and biologically active against AR transcriptional activity (EPI-053, LPY30, and LPY31).

[2] = molecular target: T2, AR (Homo sapiens, UniProt P10275, T878A); design: method as in PMID 23722902; conditions: cited from earlier work
T2 construct: endogenous in cells; host or cells: LNCaP
T2 sequence (P10275 1-920 T878A): T1 sequence (P10275 1-920 T878A)

[3] = molecular target: T2, AR; assay: AR transcriptional activity of SINT1 click chemistry probes, PSA (6.1 kb)-luciferase in LNCaP cells; assay type: cell-based; conditions: for biological activity measured using an AR-driven reporter gene construct: 40 μM LPY19, 20 μM LPY30 and LPY31
Protocol: FIGURE 2. SINT1 binds endogenous AR in living cells to inhibit transactivation of AR NTD. A, chemical structures of EPI-002, EPI-053, LPY19, LPY30, LPY31, and SINT1 (left). The effect of SINT1 probes in AR transcriptional activity was tested in LNCaP cells transiently transfected with PSA (6.1 kb)-luciferase and exposed for 1 h to 40 μM LPY19 and 20 μM LPY30 and LPY31 before induction with 1 nM […] for 48 h. Error bars represent the mean ± S.E. of n = 3 independent experiments with triplicate wells (right). B, binding of SINT1 click chemistry analogs to FL-AR in cells. LNCaP cells were exposed to modified SINT1 (LPY19, -30, and -31), EPI-053, or DMSO vehicle overnight prior to preparing whole cell lysates for click chemistry reactions. Biotinylated SINT1 or EPI probes bound to proteins were captured with streptavidin-agarose resin prior to separation by 10% SDS-PAGE and subjected to Western blotting analysis with antibodies directed to either biotin (left) or AR (middle). Red boxes highlight where AR migrates on the gel. Right, schema of experiment. […] Right, schema of experiment.

[4] = molecular target: T3, Histidine-tagged AR AF-1 recombinant protein (Homo sapiens, UniProt P10275); assay: Binding assay of click chemistry probes to recombinant AR AF-1; conditions: cell-free, AF1-His tag, 1:10 molar ratio, 37 °C 3 h
T3 construct: made in house
T3 sequence (P10275 142-485): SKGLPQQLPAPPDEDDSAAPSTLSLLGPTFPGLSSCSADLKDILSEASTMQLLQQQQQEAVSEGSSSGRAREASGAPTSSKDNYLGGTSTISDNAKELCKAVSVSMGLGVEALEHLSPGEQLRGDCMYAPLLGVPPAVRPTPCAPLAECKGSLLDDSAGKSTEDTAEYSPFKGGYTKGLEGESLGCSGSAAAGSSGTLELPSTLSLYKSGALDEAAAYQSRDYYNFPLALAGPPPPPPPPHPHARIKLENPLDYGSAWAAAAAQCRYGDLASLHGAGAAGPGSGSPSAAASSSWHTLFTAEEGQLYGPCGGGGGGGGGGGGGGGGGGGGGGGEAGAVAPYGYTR
Protocol: Histidine-tagged AR AF-1 recombinant protein was expressed and purified as described ([5]). The binding reaction was carried out by mixing AR AF-1 protein with alkyne-containing LPY probes or DMSO at a 1:10 molar ratio and incubated in buffer containing 10 mM HEPES, pH 7.9, and 100 mM NaCl at 37 °C for 3 h. LPY probes were labeled with biotin by copper-catalyzed click chemistry reaction at 25 °C for 1 h ([5]). Samples were resolved by 10% SDS-PAGE, and Western blotting was performed to detect biotin and histidine-tagged AR AF-1 using IRDye® 680LT streptavidin (1:5000) and anti-His (1:1000) antibody, respectively.
Therefore, we next evaluated whether SINT1 binds the AF-1 region in AR NTD. Purified recombinant AF-1 protein (AF1-His tag) was incubated under cell-free conditions with LPY19, LPY30, and LPY31 prior to click chemistry to add a biotin to the LPY probe (see schema in Fig. 2C, right).

[5] = molecular target: T4, progesterone receptor (PR)-β (Homo sapiens, UniProt P06401); assay: Steroid receptor specificity: PRE-luciferase reporter in LNCaP cells; assay type: cell-based; conditions: 10 μM compound, 10 nM 4-pregnene-3,20-dione, 48 h
T4 construct: expressed in transfected cells; host or cells: LNCaP
T4 sequence (P06401 1-933): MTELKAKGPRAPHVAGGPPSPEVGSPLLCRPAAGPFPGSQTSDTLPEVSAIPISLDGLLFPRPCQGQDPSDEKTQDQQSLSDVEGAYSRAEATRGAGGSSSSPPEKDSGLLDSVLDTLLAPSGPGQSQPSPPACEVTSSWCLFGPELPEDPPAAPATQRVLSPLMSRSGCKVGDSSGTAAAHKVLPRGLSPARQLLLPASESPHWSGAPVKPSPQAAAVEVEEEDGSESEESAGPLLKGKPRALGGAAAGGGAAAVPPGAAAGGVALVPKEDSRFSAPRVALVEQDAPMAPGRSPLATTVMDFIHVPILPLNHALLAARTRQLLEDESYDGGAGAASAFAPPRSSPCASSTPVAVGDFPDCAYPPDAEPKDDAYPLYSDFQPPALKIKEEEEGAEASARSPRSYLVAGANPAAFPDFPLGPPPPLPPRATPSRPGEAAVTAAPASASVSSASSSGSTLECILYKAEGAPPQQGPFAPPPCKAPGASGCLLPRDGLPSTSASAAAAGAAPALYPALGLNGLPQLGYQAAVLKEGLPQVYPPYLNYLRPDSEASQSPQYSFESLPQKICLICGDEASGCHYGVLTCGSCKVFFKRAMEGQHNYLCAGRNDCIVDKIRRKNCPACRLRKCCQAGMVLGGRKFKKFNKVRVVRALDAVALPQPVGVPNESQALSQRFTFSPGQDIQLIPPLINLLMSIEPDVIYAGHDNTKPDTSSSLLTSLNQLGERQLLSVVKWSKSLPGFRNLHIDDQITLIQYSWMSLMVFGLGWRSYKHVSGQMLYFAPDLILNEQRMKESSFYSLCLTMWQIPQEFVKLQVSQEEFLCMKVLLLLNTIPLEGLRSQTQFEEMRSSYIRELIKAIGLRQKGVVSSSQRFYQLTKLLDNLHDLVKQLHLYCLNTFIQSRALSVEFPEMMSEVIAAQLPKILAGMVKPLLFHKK
Protocol: LNCaP cells were transfected with the reporter plasmid PSA(6.1kb)-luciferase, PRE-luciferase, or GRE-luciferase and expression vector for progesterone receptor (PR)-β or glucocorticoid receptor (GR)-α in serum-free, phenol red-free medium using Lipofectin (Invitrogen). […] After 48 h of treatment, cells were lysed and analyzed for luciferase activities.
FIGURE 1. […] A, LNCaP cells were transfected with PSA (6.1 kb)-luciferase, PRE-luciferase, or GRE-luciferase reporters and expression vector for PRβ or GRα. […] Error bars represent mean percentage of vehicle activity ±S.E. of at least three independent experiments with triplicate wells. SINT1, 10 μM; […]; ***, p < 0.001. […]. Error bars represents mean ± S.E. of three technical replicates. […] DAPI staining indicates the location of the nucleus. Scale bars, 20 μm.

[6] = system: LNCaP95 cells; assay: Cell proliferation (BrdU incorporation), LNCaP95; assay type: cell-based; conditions: 48 h
Protocol: Cells were pulse-labeled with 10 μM BrdU for 2 h. Cells were fixed, and BrdU-labeled cells were identified with anti-BrdU-peroxidase (Roche Applied Science). BrdU incorporation was measured at 570 nm using a VersaMax ELISA microplate reader (Molecular Devices). At least three independent experiments with six technical replicates were analyzed, and average values are indicated.

[7] = system: Tau5; design: method as in PMID 27356095; conditions: contact to residues 353–364, 397–407 and 433–466; cited from earlier work
[8] = LNCaP, PSA (6.1 kb)-luciferase, 1 nM R1881 48 h

Compound	binding to endogenous FL-AR (biotin band corresponding to AR after streptavidin capture) [1]	biological activity measured using an AR-driven reporter gene construct [3, 8]	binding of biotinylated probe to AF-1 [4]	other results
C#CCCC(=O)NC(CCC(Cl)(Cl)Cl)C(=O)N1C(=O)C=C(OC)C1CCC(Cl)(Cl)Cl (stereo not shown) [LPY30]	a band corresponding to AR	had biological activity	binding	–
CC(O)(CS(=O)(=O)c1ccc(F)cc1)C(=O)Nc1ccc(C#N)c(C(F)(F)F)c1 (stereo not shown) [bicalutamide, reference compound]	–	–	–	PR transcriptional activity (PRE-luciferase) [5]: inhibited; proliferation of LNCaP95 cells [6]: no effect
CC(C)(c1ccc(OCC(O)CO)cc1)c1ccc(OCC(O)CCl)cc1 (stereo not drawn) [EPI-001]	–	–	–	binding to Tau5 by NMR spectroscopy [7]: binds in a pocket in Tau5

Further lines, with some results ahead:

binding to endogenous FL-AR (biotin band corresponding to AR after streptavidin capture) [1]	Compound	biological activity measured using an AR-driven reporter gene construct [3, 8]	binding of biotinylated probe to AF-1 [4]	other results
a band corresponding to AR	C#CCOC[C@H](O)COc1ccc(C(C)(C)c2ccc(OC[C@H](O)CCl)cc2)cc1 [EPI-053, reference compound]	–	–	biological activity measured using an AR-driven reporter gene construct [2]: had biological activity
not	C#CCCC(=O)N[C@H](CC(C)C)C(=O)N1C(=O)C=C(OC)[C@@H]1CC(C)C [LPY19]	very weak activity	no binding	activity at 20 μM, AR-driven reporter ([3]; 20 μM): inactive; IC50 ([3]; LNCaP, PSA (6.1 kb)-luciferase, 1 nM R1881 48 h, read-out: IC50, AR-driven reporter gene construct): ~40 µM

Reference: PMC5064002, “Sintokamide A Is a Novel Antagonist of Androgen Receptor That Uniquely Binds Activation Function-1 in Its Amino-terminal Domain” (The Journal of Biological Chemistry, 2016)
